Measured values reported in patent publication US20150306081A1, “Chemotherapy for Drug-Resistant Cancer Cells” (THE UNIVERSITY OF SYDNEY, priority 2012, published 2015).
Like-named read-outs stand apart in the source and are kept apart here. One block for each molecule: values may come before it.

What was measured:
[1] = Redox studies: oxidation of H2DCF, cell-free
Description: These studies were conducted in an acetate buffer (150 mM; pH 5) containing cysteine (100 μM) to mimic lysosomal conditions. In these experiments, hydrogen peroxide (100 μM) was added to initiate ROS generation.

Pgp [2] = target: T1, Pgp (Homo sapiens, UniProt P08183); assay: Pgp-ATPase activity assay (Pgp-Glo)
T1 sequence (P08183 whole entry): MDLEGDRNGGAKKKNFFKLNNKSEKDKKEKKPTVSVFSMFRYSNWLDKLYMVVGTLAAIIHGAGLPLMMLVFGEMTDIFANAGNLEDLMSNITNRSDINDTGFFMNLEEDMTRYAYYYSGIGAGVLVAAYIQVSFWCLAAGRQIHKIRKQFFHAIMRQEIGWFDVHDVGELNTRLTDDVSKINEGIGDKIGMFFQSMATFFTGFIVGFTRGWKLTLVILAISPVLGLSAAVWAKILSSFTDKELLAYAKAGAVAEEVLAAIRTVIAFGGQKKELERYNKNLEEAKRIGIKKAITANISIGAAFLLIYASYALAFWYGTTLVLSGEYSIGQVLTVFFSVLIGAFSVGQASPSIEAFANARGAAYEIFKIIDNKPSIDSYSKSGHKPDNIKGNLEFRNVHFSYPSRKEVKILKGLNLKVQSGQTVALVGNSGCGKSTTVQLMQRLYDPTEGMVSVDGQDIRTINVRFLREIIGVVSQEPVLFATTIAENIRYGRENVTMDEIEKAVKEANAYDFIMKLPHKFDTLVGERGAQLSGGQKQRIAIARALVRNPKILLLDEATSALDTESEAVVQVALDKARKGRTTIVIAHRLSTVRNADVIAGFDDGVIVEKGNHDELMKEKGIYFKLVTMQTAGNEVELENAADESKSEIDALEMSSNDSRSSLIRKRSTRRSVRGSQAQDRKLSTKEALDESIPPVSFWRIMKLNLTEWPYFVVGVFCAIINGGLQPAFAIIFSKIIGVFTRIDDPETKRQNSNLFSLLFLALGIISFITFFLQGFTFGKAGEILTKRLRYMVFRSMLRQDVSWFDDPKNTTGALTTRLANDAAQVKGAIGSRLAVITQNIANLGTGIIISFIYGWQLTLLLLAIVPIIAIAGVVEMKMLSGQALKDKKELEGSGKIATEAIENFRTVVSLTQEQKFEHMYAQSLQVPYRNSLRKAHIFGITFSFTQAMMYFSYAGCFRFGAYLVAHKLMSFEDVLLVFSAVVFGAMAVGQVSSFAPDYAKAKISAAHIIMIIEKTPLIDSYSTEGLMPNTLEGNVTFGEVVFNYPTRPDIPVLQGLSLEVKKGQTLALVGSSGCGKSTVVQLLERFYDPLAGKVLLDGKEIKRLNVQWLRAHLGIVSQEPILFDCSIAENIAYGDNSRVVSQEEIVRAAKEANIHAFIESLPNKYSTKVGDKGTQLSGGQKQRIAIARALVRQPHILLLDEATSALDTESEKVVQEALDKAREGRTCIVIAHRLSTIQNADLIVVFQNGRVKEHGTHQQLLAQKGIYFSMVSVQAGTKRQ
Description: The ATPase activities of Pgp were determined using Pgp-enriched membranes and a luminescent ATP detection kit (Pgp-Glo Assay Kit, Promega, USA) according to the manufacturer's instructions. Briefly, Pgp membranes (0.5 mg/mL) and Mg(II)-ATP (5 mM) were incubated in the absence or presence of sodium orthovanadate (100 μM) for 40 min/37° C. and ATP detected as a luciferase-generated luminescent signal. Basal Pgp-ATPase activities were determined as the difference between the ATP hydrolysis in the presence or absence of sodium orthovanadate. Verapamil-stimulated Pgp-ATPase activity was measured in the presence of the Pgp control substrate, verapamil (200 μM).
Test substrates (Dp44mT and Bp4eT) of interest were dissolved in dimethyl sulfoxide. The final concentration of DMSO in the assay medium was less than 1%.
The Pgp Glo™ ATPase assay (Promega, Madison, Wis.) was used to assess if Dp44mT and Bp4eT are substrates of Pgp. The ATPase assay measures the Pgp-mediated ATPase activity of Pgp by quantitating ATP consumption in the presence of the compounds of interest after incubation with purified membrane proteins containing high levels of Pgp. […] The basal ATPase activity of Pgp is compared to the ATPase activity stimulated or inhibited by the compounds of interest.

KBV1 cells [3] = assay: Lysosomal integrity, acridine orange flow cytometry, KBV1 cells; type: cell-based, Human; conditions: 30 min incubation
Description: Lysotracker® red (Life Technologies) and acridine orange (Sigma-Aldrich) are dyes showing high specificity for lysosomes and were used to determine lysosomal membrane permeability (LMP). The Lysotracker® red was visually assessed by fluorescence microscopy utilizing a Zeiss Axio Observer.Z1 Fluorescence Microscope equipped with an AxioCam camera (Zeiss, Oberkochen, Germany) and acridine orange was quantified by flow cytometry (see below).
Briefly, cells were incubated with Lysotracker® red (50 nM) for 15 min/37° C. or acridine orange (20 nM) for 15 min/37° C., washed on ice 3 times with ice-cold PBS and then incubated with Cu[Dp44mT] (25 μM) for 30 min/37° C. or Dp44mT alone (25 μM) for 30 min or 24 h/37° C.
(§1) The dyes, Rh123 and acridine orange were detected with the FACS Canto flow cytometer (BD Biosciences) and 10,000 events were acquired for every sample. Data analysis was performed using FlowJo software, version 7.5.5 (Tree Star Inc., Ashland, OR).

[4] = system: non-Pgp expressing KB31 cells; assay: Rhodamine 123 accumulation assay, KB31 cells; type: cell-based, Human; conditions: increased concentrations
Description: Cells were then harvested and resuspended in ice-cold PBS and kept on ice until flow cytometric analysis (see below).
as §1

KBV1 cells [5] = assay: MTT cytotoxicity after transient knockdown of Pgp (MDR1 siRNA) in KBV1 cells; type: cell-based, Human; conditions: Pgp siRNA vs. Scr siRNA, 72 h
Description: (§2) The effect of anti-cancer agents on cellular proliferation was examined using the MTT [3-(4,5-dimethylthiazol-2-yl)-2,5-diphenyl tetrazolium] method. In this assay, 3×10^3 cells/well were seeded in 96-well plates in 100 μL of media. The next day, serially diluted drugs of interest were added. […] The cells were incubated at 37° C. in a humidified atmosphere containing 5% CO2 and 95% air for 72 h. After this incubation, 10 μL of MIT (5 mg/mL) was added to each well and the incubation continued at 37° C. for 2 h. After solubilization of the cells with 100 μL of 10% SDS-50% isobutanol in 10 mM HCl, the plates were read at 570 nm using a scanning multi-well spectrophotometer (Victor™ Multilabel Counter plate reader; Perkin Elmer, Australia). Results were analyzed to calculate the concentration of chelator or complex necessary to reduce the absorbance to 50% (IC50) of the control.
For all siRNA treatments against MDR1 (MDR1-siRNA; Cat #: 4123, Life Technologies), a siRNAlipofectamine mixture (50 nM MDR1 siRNA and 1/400 lipofectamine 2000) was added to the cells (at 30% confluency) and incubated for 72 h/37° C. prior to further experimentation. The effectiveness of Pgp knockdown was confirmed using western blot and also assessing DOX cytotoxicity via the MTT assay. As a control, scrambled siRNA (Scr siRNA; Life Technologies) was used at the same concentration as MDR1 siRNA.

[6] = system: Pgp-expressing KBV1 cells; assay: MTT proliferation assay, KBV1 cells; type: cell-based, Human; conditions: for IC50: Homo sapiens, KB-V1, 72 h incubation; for IC50 / change of cytotoxicity in presence of Pgp inhibitors Val or Ela: KBV1 cells; for change of cytotoxicity in presence of Pgp inhibitors Val or Ela: Val 1 μM, Ela 0.1 μM, 72 h; for increase in resistance of KBV1 cells compared to KB31 cells: ratio of IC50, 72 h
[7] = system: non-Pgp expressing KB31 cells; assay: Uptake of radio-labeled drug, KB31 cells; type: cell-based, Human; conditions: Val 1 μM or Ela 0.1 μM pre-incubation, versus control
Description: (§3) For the uptake assay, each 35 mm culture dish containing 5×10^5 cells was incubated with ^14C-doxorubicin, ^3H-vinblastine or ^14C-Dp44mT (all at 1 μCi) for 30 min/37° C. Cells were then washed on ice three times with ice-cold PBS and collected for analysis. Drug uptake was calculated as the number of drug molecules/cell. […] For studies using lysosomotropic agents, cells were pre-incubated with NH4Cl (5 mM), CLQ (100 μM) or MA (100 μM) for 30 min/37° C. prior to ^14C-Dp44mT uptake. […] For efflux assays, the same labeling procedure was conducted as in the uptake assay. […] After this procedure, the overlying media was removed using a Pasteur pipette and then placed in a counting vial. The cells were removed from the plate in 1 mL of PBS and then dispensed into a separate counting vial. The radiolabeled-drug efflux was calculated as a percentage of the total drug uptake by the cells found at zero time.

[8] = system: Pgp-expressing KBV1 cells; assay: Uptake of radio-labeled drug, KBV1 cells; type: cell-based, Human; conditions: for effect of Pgp inhibitors Val and Ela on uptake: KBV1 cells, Val 1 μM or Ela 0.1 μM pre-incubation, versus control
Description: as §3, with “Cells” for “For the uptake assay, each 35 mm culture dish containing 5×10^5 cells was incubated with ^14C-doxorubicin, ^3H-vinblastine or ^14C-Dp44mT (all at 1 μCi) for 30 min/37° C. Cells”, “vial.” for “vial. The radiolabeled-drug efflux was calculated as a percentage of the total drug uptake by the cells found at zero time.”

[9] = system: non-Pgp expressing KB31 cells; assay: MTT proliferation assay, KB31 cells; type: cell-based, Human; conditions: for IC50: Homo sapiens, KB 3-1, 72 h incubation; for change of cytotoxicity in presence of Pgp inhibitors Val or Ela: Val 1 μM, Ela 0.1 μM, 72 h
[10] = system: Pgp expressing 2008/P200A cells; assay: MTT proliferation assay, 2008/P200A cells; type: cell-based; conditions: for change of cytotoxicity in presence of Pgp inhibitors Val or Ela: 2008/P200A cells, Val 1 μM, Ela 0.1 μM; for sensitivity of 2008/P200A cells compared to 2008 cells: 72 h
Description: (§4) The 2008 ovarian carcinoma cell line and the PAC-resistant 2008/P200A cell line (grown in 200 ng/mL of PAC) were kindly provided by Dr. John Allen (Centenary Institute, Sydney, Australia). Cells were grown in Dulbecco's modified Eagle's medium (DMEM; Life Technologies) with 10% (v/v) fetal calf serum (Sigma-Aldrich, St. Louis, Mo.) and supplemented with the following additions from Life Technologies: 1% (v/v) sodium pyruvate, 1% (v/v) non-essential amino acids, 100 U/mL penicillin, 100 μg/mL streptomycin, 2 mM L-glutamine and 0.28 μg/mL fungizone. The cells were then incubated at 37° C. in a humidified atmosphere of 5% CO2 and 95% air.
as §2

[11] = system: non-Pgp expressing 2008 cells; assay: MTT proliferation assay, 2008 cells; type: cell-based; conditions: for change of cytotoxicity in presence of Pgp inhibitors Val or Ela: 2008 cells, Val 1 μM, Ela 0.1 μM; for sensitivity of 2008 cells: compared to 2008/P200A cells
Description: as §4, §2

Pgp-expressing cells = conditions: reported by others; cited from earlier work
Pgp [12] = target: T1, Pgp; design: purchased Promega; conditions: reported by others, biochemical assays; cited from earlier work

Molecule: tetrathiolmolybdate [TM]
effect on redox activity / ROS generation of Cu[Dp44mT] ([1]; 5 μM, acetate buffer pH 5): totally prevented

Molecule: [Cl][Cu][Cl] [CuCl2, copper(II) chloride]
Pgp-ATPase activity (in words) (Pgp [2]): Neither FeCl3 nor CuCl2 significantly stimulated ATPase activity
lysosomal integrity (acridine orange) (KBV1 cells [3]): did not compromise lysosomal integrity
redox activity (H2DCF oxidation) ([1]; acetate buffer pH 5, cysteine, H2O2, over 12 min): no activity

decrease of ATPase activity relative to the basal control (Pgp [2]; Pgp-enriched membranes, 40 min): 5 fold
Molecule: C/C=C/C[C@@H](C)C(=O)[C@H]1C(=O)N[C@@H](C(C)C)C(=O)N(C)CC(=O)N(C)[C@@H](CC(C)C)C(=O)N[C@@H](C(C)C)C(=O)N(C)[C@@H](CC(C)C)C(=O)N[C@@H](C)C(=O)N[C@H](C)C(=O)N(C)[C@@H](CC(C)C)C(=O)N(C)[C@@H](CC(C)C)C(=O)N(C)[C@@H](C(C)C)C(=O)N1C [Val, Valspodar]

Molecule: COc1cc2c(cc1OC)CN(CCc1ccc(NC(=O)c3cccc4c(=O)c5cccc(OC)c5[nH]c34)cc1)CC2 [Ela, Elacridar]
effect on Rh123 accumulation [4]: no significant effect on Rh123 accumulation

Molecule: COc1cccc2c1C(=O)c1c(O)c3c(c(O)c1C2=O)C[C@@](O)(C(=O)CO)C[C@@H]3O[C@H]1C[C@H](N)[C@H](O)[C@H](C)O1 [DOX, Doxorubicin]
decrease of IC50 by knockdown of Pgp (KBV1 cells [5]): 15 fold
IC50 [6]: 96.4 ± 10.1 µM
change of cytotoxicity in presence of Pgp inhibitors Val or Ela [6]: markedly sensitized
increase in resistance of KBV1 cells compared to KB31 cells [6]: 220 fold
effect of Pgp inhibitors Val and Ela on uptake [7]: did not significantly alter radiolabel uptake
effect of Pgp inhibitors Val and Ela on uptake [8]: significantly (p<0.001) increased the uptake
cellular accumulation in KBV1 cells relative to KB31 cells ([8]; control groups, 1 μCi): significantly (p<0.001) less
IC50 [9]: 0.44 ± 0.003 µM
change of cytotoxicity in presence of Pgp inhibitors Val or Ela [9]: no significant (p>0.05) change in cytotoxicity
change of cytotoxicity in presence of Pgp inhibitors Val or Ela [10]: abrogated the resistance
sensitivity of 2008/P200A cells compared to 2008 cells [10]: significantly higher resistance
change of cytotoxicity in presence of Pgp inhibitors Val or Ela [11]: did not significantly (p>0.05) affect the cytotoxicity
sensitivity of 2008 cells [11]: extremely sensitive

Molecule: COc1ccc(NC(=S)N=Nc2c(O)[nH]c3c(Cl)cc(Cl)cc23)cc1 [NSC73306]
cytotoxicity to Pgp-expressing cells compared to parent cells (Pgp-expressing cells): increased cytotoxicity to Pgp-expressing cells
direct interaction with Pgp (Pgp [12]): no direct interaction

Molecule: CC[C@]1(O)C[C@@H]2CN(CCc3c([nH]c4ccccc34)[C@@](C(=O)OC)(c3cc4c(cc3OC)N(C)[C@H]3[C@@](O)(C(=O)OC)[C@H](OC(C)=O)[C@]5(CC)C=CCN6CC[C@]43[C@@H]65)C2)C1 [VBL, Vinblastine]
IC50 [6]: 29.7 ± 1.77 µM
change of cytotoxicity in presence of Pgp inhibitors Val or Ela [6]: markedly sensitized
increase in resistance of KBV1 cells compared to KB31 cells [6]: 221 fold
effect of Pgp inhibitors Val and Ela on uptake [7]: did not significantly alter radiolabel uptake
effect of Pgp inhibitors Val and Ela on uptake [8]: significantly (p<0.001) increased the uptake
IC50 [9]: 0.13 ± 0.004 µM
change of cytotoxicity in presence of Pgp inhibitors Val or Ela [9]: no significant (p>0.05) change in cytotoxicity
change of cytotoxicity in presence of Pgp inhibitors Val or Ela [10]: abrogated the resistance
sensitivity of 2008/P200A cells compared to 2008 cells [10]: significantly higher resistance
change of cytotoxicity in presence of Pgp inhibitors Val or Ela [11]: did not significantly (p>0.05) affect the cytotoxicity
sensitivity of 2008 cells [11]: extremely sensitive

Molecule: CCNC(=S)NN=C(c1ccccc1)c1ccccn1 [Bp4eT, 2-benzoylpyridine-4-ethyl-3-thiosemicarbazone]
Pgp-ATPase activity (in words) (Pgp [2]; relative to basal activity): significant (p<0.001) stimulation of ATPase activity
more cytotoxic in drug-resistant KBV1 cells compared to KB31 cells [6]: 6.7 fold
sensitivity of 2008/P200A cells compared to 2008 cells [10]: significantly (p<0.001) increased sensitivity

Molecule: [Cl][Fe]([Cl])[Cl] [FeCl3]
Pgp-ATPase activity (in words) (Pgp [2]): Neither FeCl3 nor CuCl2 significantly stimulated ATPase activity
lysosomal integrity (acridine orange) (KBV1 cells [3]): did not compromise lysosomal integrity
